This is an account of results in patent US10669266B2, “Oxadiazole inhibitors of HIPK2 for treating kidney fibrosis” (ICAHN SCHOOL OF MEDICINE AT MOUNT SINAI, priority 2017, dated 2020).

Like-named read-outs stand apart in the source and are kept apart here.

One experiment relates to UUO mice. In words: Unilateral ureteral obstruction (UUO) mouse model of renal fibrosis. It counts as in vivo. The conditions noted are these: for fibrosis at 14 days post-surgery (picosirius red, Masson's trichrome, Collagen I immunofluorescence): administration starting at day 7 post-surgery (day 7 to 14). The method, then: Tg26 mice of FVB/N genetic background bearing a defective HIV-1 provirus lacking gag-pol have been described by Feng et al. [J Am Soc Nephrol 2009; 20: 2138-2146]. Six-week old heterozygous Tg26 mice were used in this study. Wildtype littermates were used as controls. Mice in the treatment group received test compound dissolved in DMSO and diluted in saline (5% DMSO) by oral gavage at a dose of 200 μg/kg body weight per day. Mice in the control group received the same volume of 5% DMSO/saline vehicle. The mice were treated for a total of 4 weeks and sacrificed at age of 10 weeks. The UUO model was established in male C57BL/6 mice (The Jackson Laboratory) by ligation of the left ureter as described by Jin et al. [Lab Invest, 93: 801-811, 2013]. After the operation, UUO mice were randomly divided into control group (vehicle) and treatment group. Mice were fed with test compound by oral gavage at a dose of 200 μg/kg body weight per day for 7 days.
Immunofluorescence staining was conducted on paraffin-embedded kidney sections using standard procedures. Briefly, deparaffinized sections were incubated with primary antibody against collagen I (1:50, #NB6-00-4-8, Novus) at 4° C. overnight. After being washed, sections were incubated with Alexa Fluor488-labelled second antibody (1:200, #A11034, Invitrogen) at room temperature for 1 hour in darkness. After nuclei were stained with 4′, 6-diamidino-2-phenyllindole (DAPI) slides were mounted using Aqua PolyMount (Polysciences, Inc) and images were acquired using AxioVision IIe microscope with a digital camera.
Renal fibrosis was evaluated histologically by Sirius red staining on paraffin slides of mice kidney tissues according to the manufacturer's instructions (#ab150681, Abcam). Masson's trichrome staining on paraffin slices of mice kidney tissue was performed according to manufacturer's instructions (#87019, Thermo Scientific).
The unilateral ureteral obstruction (UUO) mouse model, a commonly used model for renal fibrosis, was used to determine whether compounds of the invention can ameliorate fibrosis in vivo. […]

A further experiment addresses T1, HIPK2-Smad3 interaction (Homo sapiens, UniProt Q9H2X6).
T1 construct: host or cells: HEK 293T
In words: His6-HIPK2 cobalt resin pull-down of endogenous Smad3 in 293T cells. It counts as cell-based. The conditions noted are these: 293T cells overexpressing His6-HIPK2, two different doses. The method, then: 4×Smad binding element-driven firefly luciferase (SBE4-Luc) plasmid was purchased from Addgene (#16495). Renilla luciferase reporter plasmid (pRL) was purchased from Promega. Active domain deleted HIPK2 was previously described by Jin et al. [Nat Med, 18: 580-588]. The His6-HIPK2 construct was generated by PCR amplification of coding region using plasmid containing human HIPK2 gene (GeneCopoeia™) as the template.
293T cells were lysed in equilibration/wash buffer (50 mM sodium phosphate, 300 mM sodium chloride, 10 mM imidazole; pH 7.4) 48 hours after transfection of His6-tagged HIPK2 expression plasmid. Cleared cell lysate was incubated with HisPur Cobalt resin (Thermo Fisher Scientific, NY) on end-over-end rotator at 4° C. for 2 hours. After centrifugation (700×g, 2 min, 4° C.), the resin was washed 3 times in a wash buffer. The bound protein complexes were finally eluted with elution buffer (50 mM sodium phosphate, 500 mM sodium chloride, 150 mM imidazole; pH 7.4) and subjected to western blot analysis.
Cells were lysed in M-PER mammalian protein extraction reagent (#78501, Thermo Fisher Scientific, NY) containing protease inhibitor cocktail (#11836153001, Roche) and phosphatase inhibitors (50 mM NaF, 10 mM β-glycerophosphate, 5 mM sodium pyrophosphate, 2 mM Na3VO4). Total protein concentration was measured using the Bradford reagent (#500-0006, Bio-Rad). […]

The subject of experiment [1] is Smad3-responsive luciferase reporter (SBE4-Luc). The conditions noted are these: for suppression of Smad3 reporter activity, inhibition compared to DMSO control: absence of TGF-β1 stimulation.
Experimental: Human primary tubular cells (PromoCell GmbH, Heidelberg, Germany) were cultured in Renal Epithelial Cell Growth Medium-2 (Promocell GmbH) with supplements according to manufacturer's protocol human primary renal tubular epithelial cells with <5 passages were used for all studies. For HIV infection of hRTECs, pNL4-3:ΔG/P-EGFP, a gag/poi-deleted HIV-1 construct that contains EGFP in the gag open reading frame, and pHR-IRES-EGFP, a control EGFP construct, were used to generate the VSV-G pseudotyped virus. Cells were infected with HIV pseudotyped virus or control virus for 2 days before the treatment with test compound.
Forty-eight hours post-transfection cells were treated with assigned concentrations of test compound together with or without 10 ng/ml TGF-β1 for 16 hours. Luciferase activities were measured using the Dual-Luciferase Reporter Assay kit (Promega, #E1910). Data are expressed as the ratio of firefly luciferase activity over Renilla luciferase activity. […] 48 hours after transfection, luciferase activities were measured.
The target in experiment [2] is T2, HIPK2 (Homo sapiens, UniProt Q9H2X6). In words: HIPK2 kinase assay (ProQinase GmbH). It counts as biochemical. The arrangement: purchased ProQinase GmbH (Freiburg, Germany), assay service. The conditions noted are these: increasing concentrations. As for the experimental part: HIPK2 kinase assay was performed by ProQinase GmbH (Freiburg, Germany).
Kinase assay was performed by ProQinase GmbH (Freiburg, Germany).

The target of experiment [3] is T2, HIPK2. The experiment in a line: Drug affinity responsive target stability (DARTS) with pronase in 293T lysates. It counts as binding. The arrangement: endogenous in cells; host or cells: HEK 293T cell lysate. The conditions noted are these: 1:10,000 pronase/cell lysate ratio. As for the experimental part:
Drug affinity responsive target stability (DARTS) method was used to identify protein targets of test compound as described previously by Pai et al. [Methods Mol Biol, 1263: 287-298, 2015]. Briefly, 293T lysates were incubated with test compound at room temperature for 1 hour. After incubation, cell lysates were subjected to proteolysis with various concentrations of pronase (#10165921001, Roche) at room temperature for 20 minutes. Proteolysis was stopped by addition of 5× protein loading buffer and heating at 90° C. for 5 minutes. Protein samples were subjected to western blot analysis.
Drug affinity responsive target stability (DARTS) has recently been developed to identify potential protein targets of small molecules. It is based on the principle that the binding of small molecule compound to the target protein changes the protein structure such that it can increase its stability and confer protection against proteolysis. In order to test whether compounds of the invention bind directly to HIPK2, we performed the DARTS experiments using pronase in presence of Example 1. […] Because HIPK2 abundance is quite low in many known cell types, we overexpressed His6-tagged HIPK2 in 293T cells for testing its interaction with the endogenous Smad3. The expression of His6-HIPK2 and Smad3 in 293T cells was confirmed by western blot. We pulled down His6-HIPK2 using cobalt beads and checked for the presence of Smad3 in cells treated with two different doses of Example 1.

T2 sequence (Q9H2X6 whole entry): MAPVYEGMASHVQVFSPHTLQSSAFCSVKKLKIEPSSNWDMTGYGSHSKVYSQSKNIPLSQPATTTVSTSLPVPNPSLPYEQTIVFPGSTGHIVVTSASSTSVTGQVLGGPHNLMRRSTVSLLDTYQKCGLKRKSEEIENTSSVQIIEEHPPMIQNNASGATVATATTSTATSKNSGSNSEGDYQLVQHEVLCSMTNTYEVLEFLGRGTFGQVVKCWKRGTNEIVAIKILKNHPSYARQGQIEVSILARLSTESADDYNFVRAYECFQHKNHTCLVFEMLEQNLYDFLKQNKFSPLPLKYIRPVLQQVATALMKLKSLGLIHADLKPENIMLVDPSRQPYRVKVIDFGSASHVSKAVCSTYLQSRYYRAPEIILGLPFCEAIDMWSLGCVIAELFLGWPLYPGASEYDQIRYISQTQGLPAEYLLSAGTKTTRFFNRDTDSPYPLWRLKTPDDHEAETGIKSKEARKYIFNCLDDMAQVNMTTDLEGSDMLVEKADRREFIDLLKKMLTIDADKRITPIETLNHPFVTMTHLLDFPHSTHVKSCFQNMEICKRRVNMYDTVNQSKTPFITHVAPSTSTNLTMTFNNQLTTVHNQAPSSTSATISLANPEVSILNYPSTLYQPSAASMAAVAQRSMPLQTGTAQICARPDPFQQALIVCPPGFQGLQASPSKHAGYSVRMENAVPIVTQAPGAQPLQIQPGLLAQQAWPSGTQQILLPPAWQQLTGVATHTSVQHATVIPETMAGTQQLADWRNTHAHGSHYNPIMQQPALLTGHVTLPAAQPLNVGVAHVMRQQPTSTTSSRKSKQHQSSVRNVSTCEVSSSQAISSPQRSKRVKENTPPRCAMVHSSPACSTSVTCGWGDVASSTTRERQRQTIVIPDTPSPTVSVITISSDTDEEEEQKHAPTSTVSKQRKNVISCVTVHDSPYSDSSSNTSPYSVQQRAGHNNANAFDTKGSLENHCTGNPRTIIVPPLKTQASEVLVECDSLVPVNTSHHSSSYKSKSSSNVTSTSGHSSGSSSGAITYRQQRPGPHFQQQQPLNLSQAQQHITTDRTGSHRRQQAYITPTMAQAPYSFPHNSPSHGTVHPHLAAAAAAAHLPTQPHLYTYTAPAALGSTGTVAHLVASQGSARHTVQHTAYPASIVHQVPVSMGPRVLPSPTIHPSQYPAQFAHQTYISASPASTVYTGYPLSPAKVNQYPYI
T1 sequence (Q9H2X6 whole entry): as above

As to `COc1ccc2cc(-c3nc(-c4ccc(Br)cc4)no3)cnc2c1` [Example 1, 3-(4-Bromophenyl)-5-(7-methoxyquinolin-3-yl)-1,2,4-oxadiazole], in the experiment on UUO mice (UUO kidneys, treatment day 7 to 14), the “expression of Wnt/β-catenin pathway genes (Axin2, c-myc, Twist), real-time PCR” value is on record as “significantly diminished”. Also, the “Smad3 phosphorylation and α-SMA expression in UUO kidneys (western blot)” value in the experiment with UUO mice (UUO mice, 200 μg/kg/day oral gavage, day of surgery to 7 days post-surgery) is “significantly decreased”. Also, the “renal fibrosis (picrosirius red, Masson's trichrome, Collagen I immunofluorescence)” value with UUO mice (UUO mice, 200 μg/kg/day oral gavage, day of surgery to 7 days post-surgery, vs vehicle) is “significantly attenuated renal fibrosis”. Also, the “fibrosis at 14 days post-surgery (picosirius red, Masson's trichrome, Collagen I immunofluorescence)” value in the experiment with UUO mice (UUO mice, listed as BT173) is reported as “significant attenuation of fibrosis”; with UUO mice (UUO mice, listed as Example I), “showed efficacy in amelioration of fibrosis progression”. Also, in the experiment with UUO mice (UUO mice, treatment day 7 to 14), the “p53 activation (phosphorylation) in UUO kidneys” value is given as “no effects”. In the experiment with UUO mice (UUO mice, treatment day 7 to 14, vs vehicle-treated UUO kidneys), the “p-Smad3 and α-SMA in kidney cortex (western blot)” value was “marked reduction”. Further, the “interaction between Smad3 and HIPK2 (His6-HIPK2 pull-down)” value at HIPK2-Smad3 interaction was “reduced the interaction between Smad3 and HIPK2 in a dose-dependent manner”. Besides, the “Luciferase Activity (Relative to DMSO control) −TGFβ” value in experiment [1] is on record as 0.197. Also, the figures for the “suppression of Smad3 reporter activity, inhibition compared to DMSO control” value in experiment [1] (3.3 μm) and in experiment [1] (10 μm) were approximately 40% and approximately 70%, respectively. Besides, the “SBE4-luciferase activity, inhibition compared to TGFβ1-treated only control” value in experiment [1] (presence of TGF-β1, first of three tested doses) is given as approximately 40%; in experiment [1] (presence of TGF-β1, second of three tested doses), approximately 60%; in experiment [1] (presence of TGF-β1, third of three tested doses), approximately 75%. For the same molecule, the “inhibition of HIPK2 kinase activity” value at HIPK2 [2] is recorded as “No inhibition”. Also, the results for the “protection of HIPK2 from pronase digestion (DARTS)” value at HIPK2 [3] (30 μm) and at HIPK2 [3] (100 μm) were “partial protection” and “complete protection”, respectively. The “protection of HIPK2 from pronase degradation (DARTS)” value on HIPK2 [3] (versus DMSO control) is “protected from degradation”.
